From patent US11541059B2, “Heterocyclic compounds and uses thereof” (Infinity Pharmaceuticals, Inc., priority 2014, dated 2023)

Tests used:
[1] = Target organ toxicity (TOT) study, 10 days oral; format: in vivo; settings: rat
Experimental: A target organ toxicity (TOT) study was performed in rats. […] This study assessed clinical observations/mortality, body weights, clinical pathology, toxicokinetics, and histopathology of select tissues. The tissues studied were: Adrenal gland, Bone marrow (femur), Brain, Small Intestine (including GALT), Heart, Large Intestine, Kidney, Stomach, Liver, Pancreas, Spleen, Testis, and Thymus. Doses were selected based on repeat-dose tolerability study, PK and plasma protein binding, and cellular IC50s for PI3K isoforms. The doses selected were: high-dose: 50 mg/kg/day, expected to inhibit α, β, δ, and γ PI3K isoforms; Mid-high dose: 20 mg/kg/day, expected to inhibit β, δ, and γ PI3K isoforms; Mid-low dose: 7.5 mg/kg, expected to inhibit γ PI3K isoform only; and Low-dose: 1 mg/kg/day, expected to inhibit γ PI3K isoform only.

LLC tumor = LLC tumor brei model with or without cyclophosphamide; format: in vivo, mouse; settings: BB 15 mg/kg QD PO; cyclophosphamide 50 mg/kg EOD IP, FIG. 48
Experimental: In this experiment, treatment began when tumors reached approx. 150 mm^3—around day 12. Caliper and xenogen images were monitored. Treatment groups n=13-15/group. […] Samples for FACs analysis were collected on day 23 post implant. Using FACS, cells were assayed for the level of CD11b and Gr-1.

MC38 tumors = assay: MC38 colon cancer model; format: in vivo, mouse
Experimental: In this model, a syngeneic colon cancer cell line is run subcutaneously. The experimental setup was as follows.
Female CR C57BL/6 mice were set up with 1×10^6 MC38 tumor cells in 0% Matrigel sc in flank. The cell injection volume was 0.05 ml per mouse. When tumors reached an average size of […], a pair match was made and treatment began. The tumor was measured by caliper biweekly.
The dosing volume was 5 mL/kg.
For all animals, blood was collected by terminal cardiac puncture under isoflurane anesthesia. The blood was processed for plasma. In addition, tumor samples were collected.
At study end, tumors were isolated, fixed in 10% neutral buffered formalin and embedded in paraffin for histologic analysis. Tumor sections from both vehicle and Compound BB monotherapy were cut for immunohistochemical analysis. T-cells within the tumor sections were identified utilizing a CD3-specific antibody via automated immunohistochemistry equipment (Ventana). Once stained, slides were digitalized via Aperio slide scanning equipment. Next, stained tumor sections were quantified via Definians software to assess the percentage of CD3 positive cells within each tumor. […] A trendline was added to the vehicle and Compound BB monotherapy graphs.

[2] = tested on: collagen induced arthritis; assay: Rat collagen induced arthritis (CIA) model; settings: FIG. 1
[3] = Stability in simulated gastric fluid; format: physicochemical
Description: The phyiscochemical properties of Compound BB are drug-like, and suitable for use of the compound as a drug.

[4] = tested on: tumor cell inhibition of T cell proliferation; assay: Ex vivo T cell proliferation (CFSE) with CT26 tumor cells; format: in vivo, mouse; settings: tumors from treated mice
Experimental: CT26 was an N-nitroso-N-methylurethane-(NNMU) induced, undifferentiated colon carcinoma cell line. It was cloned to generate the cell line designated CT26.WT (ATCC CRL-2638).
The duration of the study was 1 week under treatment. 5-6 week old female, Balb/c mice (Jackson Labs) implanted subcutaneously with 5×10^5 CT26 cells in 100 μl PBS. CT26 cells were cultured in RPMI supplemented with 10% FBS. Dosing commenced when tumors reached an average volume of 500-600 mm^3.
For group 3 (αPD-L1), the mice were dosed once, IP, 200 ug (200 uL from 1 mg/ml stock).
Mice were monitored daily for adverse clinical effects. Body weights and tumor luminescent were measured two times per week. At the end of the study, tumors were harvested and cut into 3 parts; one piece for CTL killing assay, one piece for CSFE proliferation assay and one piece (split into two) for OCT/FFPE.
Spleens from 3 vehicle treated tumor bearing mice were physically dissociated in T cell media and passed through a 70 micron filter. After red cell lysis, the cells were pooled, brought up in PBS and stained with CFSE (invitrogen). After washing, these cells were brought up in 20 ml T cell media. Half the cells received Dynal mouse activator beads (CD3/CD28 crosslinking at a 1:1 concentration). CD3/CD28 beads induce proliferation in splenocytes from tumor bearing mouse (data not shown). […]

## C[C@H](NC(=O)c1c(N)nn2cccnc12)c1cc2cccc(C#Cc3cnn(C)c3)c2c(=O)n1-c1ccccc1 [Compound BB]
[1]; high dose animals (50 mg/kg/day)
  Decrease in body weights compared to vehicle: 5-8%
[1]; males ≥7.5 mg/kg/day, females 50 mg/kg/day
  Histopathology, thymus: minimal/mild lymphoid depletion
[1]; oral 10 days, any dose level
  Mortality and clinical signs: No mortality or clinical signs were observed
[1]; oral, 1, 7.5, 20, 50 mg/kg/day
  Tolerability, TOT study: well-tolerated for 10 days
[1]; primarily at doses ≥20 mg/kg/day
  Histopathology, spleen: minimal/mild lymphoid depletion of the marginal zone and periarteriolar lymphoid sheaths (PALS)
LLC tumor
  Tumor growth, LLC tumor brei model: reduced tumor growth by about the same amount
MC38 tumors; MC38 tumors vs vehicle, FIG. 30
  Intratumoral CD3+ T cells: significantly more intratumoral CD3+ T cells
MC38 tumors; monotherapy, FIG. 29A
  Tumor growth, MC38 colon cancer model: significantly inhibited tumor growth
[2]
  Mean ankle diameter, day 9 to day 17: has therapeutic effects
[3]
  Stability in 38° simulated gastric fluid: > 4 h
[4]
  Suppression of T cell proliferation by cells derived from CT26 tumors: can release the suppression
